Results on four compounds are retold here after article PMC7464788, “Modification and Targeted Design of N-Terminal Truncates Derived from Brevinin with Improved Therapeutic Efficacy” (Biology, 2020).

Data set [1] concerns Candida albicans (NCYC1467). The conditions noted are these: cited from earlier work. The text has this:
(§1) Although B1PLC had better activity against bacteria, its potency was slightly lower than that of B1PLB against fungi. As we know, the more positive charge of B1PLC (Table 1) could contribute to an enhanced electrostatic interaction with the negatively charged bacterial cell envelope. Therefore, to try to combine the properties of the two peptides, we designed B1A by substitution of the Asn residue at po ...

Data set [2] concerns Escherichia coli (NCTC10418). The conditions noted are these: cited from earlier work.
Excerpt: as §1

The subject of data set [3] is Staphylococcus aureus (NCTC10788). The note with it: cited from earlier work.
Excerpt: as §1

The subject of data set [4] is Candida albicans (NCYC1467). The format is cell-based. Here is the method: (§2) The antimicrobial assay was carried out to detect the minimum inhibitory concentration (MIC) and the minimum bactericidal concentration (MBC) of each peptide on the microbes as described previously. Seven different microorganisms were used in the assay: Gram-positive bacteria Staphylococcus aureus (NCTC10788), Enterococcus faecalis (NCTC12697), and methicillin-resistant S. aureus (MRSA) (NCTC12493); Gram-negative bacteria Escherichia coli (NCTC10418), Pseudomonas aeruginosa (ATCC27853), and Klebsiella pneumoniae (ATCC 43816); and fungi Candida albicans (NCYC1467). Bacterial strains were inoculated and grown to mid-log phase in fresh Mueller Hinton broth (MHB) at 37 °C for overnight, then bacteria inoculum suspensions were subcultured until reaching the logarithmic growth phase by measuring OD of the cultures at wavelength 550 nm. Then, 99 µL bacteria and 1 µL peptide solution were mixed in the 96-wells microplate. For positive and negative controls, the bacteria were incubated with antibiotics (Norfloxacin for Gram-positive bacteria and Gram-negative bacteria; Amphotericin B for fungi) solution and MHB medium, respectively. Experiments were repeated five times in five replicates.

In data set [5] the test system is Enterococcus faecalis (NCTC12697). The data set is classed as cell-based. Here is the method:
as §2

For data set [6], the system named is Escherichia coli (NCTC10418). The data set is classed as cell-based. Here is the method: as §2
Data set [7] relates to Klebsiella pneumoniae (ATCC 43816). The format is cell-based. Here is the method:
as §2

The subject of data set [8] is Pseudomonas aeruginosa (ATCC27853). The data set is classed as cell-based. Here is the method:
as §2

In data set [9] the test system is Staphylococcus aureus (NCTC10788). The format is cell-based. Here is the method: as §2
Data set [10] has as its system methicillin-resistant S. aureus (MRSA) (NCTC12493). The format is cell-based, Staphylococcus aureus. Here is the method:
as §2

The subject of data set [11] is horse erythrocytes. Nature of the data set: Haemolytic assay. The format is cell-based. The note with it: 2% (v/v) horse red blood cells, 37 °C, 2 h; 1% Triton-X 100 positive control; three times in five replicates. Here is the method: The haemolytic assay was carried out to detect the cytotoxicity of each peptide to erythrocytes obtained from fresh defibrinated horse blood as described before. An appropriate volume of horse blood solution was collected via washing and transferring until the supernatant was clear. Then, 2% (v/v) suspension of red blood cells were incubated with peptide at 37 °C for 2 h. For positive and negative controls, the red blood cells were incubated with 1% (v/v) Triton-X 100 and Phosphate-buffered saline (PBS) solution, respectively. The 10% of maximal haemolysis concentration (HC10, μM) was utilised to assess the haemolytic potential. Experiments were repeated three times in five replicates.

In brackets after ≈: the same amount, converted by molar mass. Positions of bridges follow the written chain, without caps; N, C: chain ends. Residues, ends and D or L forms follow the SMILES beside them. No end group written: not given here. A value given as a limit tells only on which side of the number the result lay.

For “FLPLIAGLAANFLPKIFCAITKKC (disulfide 18-24 (inferred)) [Peptide B1PLB, Brevinin-1PLb, brevinin-1 peptide from the skin secretions of Lithobates palustris (Rana palustris)]”, the “Antimicrobial activity against C. albicans” value in data set [1] is “potent antimicrobial activity”. Also, the “Antimicrobial activity against E. coli” value in [2] was “potent antimicrobial activity”. For the same compound, in data set [3], the “Antimicrobial activity against S. aureus” value is recorded as “potent antimicrobial activity”.

Regarding “FLPVIAGVAAKFLPKIFCAITKKC (disulfide 18-24 (inferred)) [Peptide B1PLC, brevinin-1PLc, brevinin-1 peptide from the skin secretions of Lithobates palustris (Rana palustris)]”, the “Antimicrobial activity against C. albicans” value in [1] was “potent antimicrobial activity”. Further, in data set [2], the “Antimicrobial activity against E. coli” value was “potent antimicrobial activity”. In data set [3], the “Antimicrobial activity against S. aureus” value is given as “potent antimicrobial activity”.

`CC[C@H](C)[C@@H]1NC(=O)[C@H](C)NC(=O)[C@@H](NC(=O)[C@H](Cc2ccccc2)NC(=O)[C@@H](NC(=O)[C@H](CCCCN)NC(=O)[C@@H]2CCCN2C(=O)[C@H](CC(C)C)NC(=O)[C@H](Cc2ccccc2)NC(=O)[C@H](CCCCN)NC(=O)[C@@H](N)CCCCN)[C@@H](C)CC)CSSC[C@@H](C(=O)O)NC(=O)[C@H](CCCCN)NC(=O)[C@H](CCCCN)NC(=O)[C@H]([C@@H](C)O)NC1=O` [KKB2] (H-KKFLPKIFCAITKKC-OH; disulfide 9-15): in [4], the “MBC C. albicans” value is 64 µM (≈ 113 µg/mL) and the “MIC C. albicans” value is recorded as 32 µM (≈ 56.5 µg/mL). Besides, in [5], the MBC E. faecalis was found to be 512 µM (≈ 904 µg/mL) and the MIC E. faecalis is 512 µM (≈ 904 µg/mL). Besides, in data set [6], the “MBC E. coli” value is reported as 32 µM (≈ 56.5 µg/mL) and the “MIC E. coli” value was 16 µM (≈ 28.3 µg/mL). Further, in [7], the “MBC K. pneumoniae” value is on record as 256 µM (≈ 452 µg/mL) and the “MIC K. pneumoniae” value worked out at 128 µM (≈ 226 µg/mL). Further, in data set [8], the “MBC P. aeruginosa” value is greater than 512 µM and the “MIC P. aeruginosa” value is reported as 256 µM (≈ 452 µg/mL). The “MBC S. aureus” value in data set [9] is reported as 64 µM (≈ 113 µg/mL). In data set [10], the “MBC MRSA” value is on record as 64 µM (≈ 113 µg/mL) and the “MIC MRSA” value turned out to be 16 µM (≈ 28.3 µg/mL). In addition, the “HC10 (concentration causing 10% red cell lysis)” value in [11] was 207 µM.

Regarding `CC[C@H](C)[C@@H]1NC(=O)[C@H](C)NC(=O)[C@@H](NC(=O)[C@H](Cc2ccccc2)NC(=O)[C@H](Cc2c[nH]c3ccccc23)NC(=O)[C@H](CCCCN)NC(=O)[C@H](Cc2c[nH]c3ccccc23)NC(=O)[C@@H]2CCCN2C(=O)[C@H](CC(C)C)NC(=O)[C@H](Cc2ccccc2)NC(=O)[C@@H](N)CCCCN)CSSC[C@@H](C(=O)O)NC(=O)[C@H](CCCCN)NC(=O)[C@H](CCCCN)NC(=O)[C@H]([C@@H](C)O)NC1=O` [KW^5,7B2] (H-KFLPWKWFCAITKKC-OH; disulfide 9-15), in data set [4], the “MBC C. albicans” value is 32 µM (≈ 60.7 µg/mL) and the “MIC C. albicans” value turned out to be 16 µM (≈ 30.4 µg/mL). In [5], the “MBC E. faecalis” value worked out at 512 µM (≈ 971 µg/mL) and the “MIC E. faecalis” value worked out at 256 µM (≈ 486 µg/mL). Besides, in data set [6], the “MBC E. coli” value is on record as 64 µM (≈ 121 µg/mL) and the “MIC E. coli” value is reported as 16 µM (≈ 30.4 µg/mL). In data set [7], the “MBC K. pneumoniae” value is 64 µM (≈ 121 µg/mL) and the “MIC K. pneumoniae” value was found to be 32 µM (≈ 60.7 µg/mL). Further, in [8], the “MBC P. aeruginosa” value was 128 µM (≈ 243 µg/mL) and the “MIC P. aeruginosa” value is on record as 64 µM (≈ 121 µg/mL). In addition, in data set [9], the “MBC S. aureus” value was found to be 16 µM (≈ 30.4 µg/mL). In [10], the “MBC MRSA” value came to 32 µM (≈ 60.7 µg/mL) and the “MIC MRSA” value worked out at 8 µM (≈ 15.2 µg/mL). In addition, the “HC10 (concentration causing 10% red cell lysis)” value in data set [11] came out at 58.42 µM.
